From ChEMBL document CHEMBL1201862, “PubChem BioAssay data set” (2004)
Activity calls are given as the source filed them.

Assays:
[1] = NIH-3T3 fibroblast cytotoxicity, dose response, cytotoxicity control, cell-based, fluorescence, Alamar Blue, secondary assay (AID 2327); format: functional;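 also: NIH-3T3 mouse fibroblasts cultured with fluconazole at 8 µg/mL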
[2] = fluconazole-exposed Candida albicans growth modulators – fluorescence, retest, confirmation (AID 2467); format: functional, cell-based
[3] = target: T1, Rac GTPase-activating protein 1 (Homo sapiens, UniProt Q9H0H5); assay: blockers of MgcRacGAP-driven Rac1 GTP hydrolysis – biochemical, ADP Hunter fluorescence, primary and confirmatory, confirmation (AID 624330); format: functional
T1 sequence (Q9H0H5 whole entry): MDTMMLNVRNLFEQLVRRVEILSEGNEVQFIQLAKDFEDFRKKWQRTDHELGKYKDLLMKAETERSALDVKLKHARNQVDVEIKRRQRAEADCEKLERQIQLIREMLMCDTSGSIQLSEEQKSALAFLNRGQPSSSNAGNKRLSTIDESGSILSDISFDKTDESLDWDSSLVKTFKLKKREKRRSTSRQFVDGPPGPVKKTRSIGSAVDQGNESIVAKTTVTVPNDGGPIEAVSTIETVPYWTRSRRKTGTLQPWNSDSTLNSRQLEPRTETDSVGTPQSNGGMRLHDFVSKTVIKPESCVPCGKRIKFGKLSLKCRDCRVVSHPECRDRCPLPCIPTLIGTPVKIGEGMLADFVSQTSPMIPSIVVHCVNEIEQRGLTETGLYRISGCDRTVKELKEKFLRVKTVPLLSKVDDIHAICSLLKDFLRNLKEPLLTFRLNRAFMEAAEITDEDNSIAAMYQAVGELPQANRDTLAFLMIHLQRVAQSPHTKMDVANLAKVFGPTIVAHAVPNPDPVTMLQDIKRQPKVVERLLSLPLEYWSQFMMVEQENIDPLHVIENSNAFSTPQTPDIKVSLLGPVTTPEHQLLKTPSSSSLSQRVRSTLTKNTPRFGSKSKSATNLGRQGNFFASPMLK

[4] = target: T2, Replicative DNA helicase DnaB (Mycobacterium tuberculosis, UniProt P9WMR3); assay: DnaB intein splicing inhibitors, dose response, biochemical, cell-free fluorescence (AID 449749); format: functional
T2 sequence (P9WMR3 whole entry): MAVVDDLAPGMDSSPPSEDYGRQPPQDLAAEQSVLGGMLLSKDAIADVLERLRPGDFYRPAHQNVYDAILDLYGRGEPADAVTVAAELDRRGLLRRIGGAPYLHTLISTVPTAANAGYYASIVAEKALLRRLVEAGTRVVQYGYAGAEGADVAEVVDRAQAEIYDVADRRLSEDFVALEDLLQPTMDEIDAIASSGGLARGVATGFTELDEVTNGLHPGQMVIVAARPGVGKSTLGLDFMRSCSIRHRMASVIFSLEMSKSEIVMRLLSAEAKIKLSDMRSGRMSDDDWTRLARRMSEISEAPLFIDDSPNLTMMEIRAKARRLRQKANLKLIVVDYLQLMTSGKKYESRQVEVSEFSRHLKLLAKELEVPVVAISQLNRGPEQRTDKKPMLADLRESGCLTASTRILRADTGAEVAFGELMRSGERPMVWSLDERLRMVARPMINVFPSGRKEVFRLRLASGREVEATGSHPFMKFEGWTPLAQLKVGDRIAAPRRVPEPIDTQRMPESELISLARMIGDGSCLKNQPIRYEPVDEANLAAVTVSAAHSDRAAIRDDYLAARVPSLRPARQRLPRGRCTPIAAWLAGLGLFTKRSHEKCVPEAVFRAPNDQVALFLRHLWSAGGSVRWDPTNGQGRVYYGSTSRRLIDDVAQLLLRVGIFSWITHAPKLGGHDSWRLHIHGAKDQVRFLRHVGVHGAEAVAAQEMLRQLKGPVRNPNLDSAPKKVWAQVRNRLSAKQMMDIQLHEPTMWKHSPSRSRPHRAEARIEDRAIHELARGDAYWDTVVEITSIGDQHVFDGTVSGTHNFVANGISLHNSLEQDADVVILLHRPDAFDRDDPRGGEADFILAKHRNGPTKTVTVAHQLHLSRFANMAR

Protein RecA = target: T3, Protein RecA (Mycobacterium tuberculosis, UniProt P9WHJ3); assay: Fluorescence Cell-Free Homogeneous Dose Retest to Identify Inhibitors of RecA-Intein Splicing Activity. [Related pubchem assays (depositor defined):AID2097, AID2223, AID489010, AID492950]; format: functional
T3 sequence (P9WHJ3 whole entry): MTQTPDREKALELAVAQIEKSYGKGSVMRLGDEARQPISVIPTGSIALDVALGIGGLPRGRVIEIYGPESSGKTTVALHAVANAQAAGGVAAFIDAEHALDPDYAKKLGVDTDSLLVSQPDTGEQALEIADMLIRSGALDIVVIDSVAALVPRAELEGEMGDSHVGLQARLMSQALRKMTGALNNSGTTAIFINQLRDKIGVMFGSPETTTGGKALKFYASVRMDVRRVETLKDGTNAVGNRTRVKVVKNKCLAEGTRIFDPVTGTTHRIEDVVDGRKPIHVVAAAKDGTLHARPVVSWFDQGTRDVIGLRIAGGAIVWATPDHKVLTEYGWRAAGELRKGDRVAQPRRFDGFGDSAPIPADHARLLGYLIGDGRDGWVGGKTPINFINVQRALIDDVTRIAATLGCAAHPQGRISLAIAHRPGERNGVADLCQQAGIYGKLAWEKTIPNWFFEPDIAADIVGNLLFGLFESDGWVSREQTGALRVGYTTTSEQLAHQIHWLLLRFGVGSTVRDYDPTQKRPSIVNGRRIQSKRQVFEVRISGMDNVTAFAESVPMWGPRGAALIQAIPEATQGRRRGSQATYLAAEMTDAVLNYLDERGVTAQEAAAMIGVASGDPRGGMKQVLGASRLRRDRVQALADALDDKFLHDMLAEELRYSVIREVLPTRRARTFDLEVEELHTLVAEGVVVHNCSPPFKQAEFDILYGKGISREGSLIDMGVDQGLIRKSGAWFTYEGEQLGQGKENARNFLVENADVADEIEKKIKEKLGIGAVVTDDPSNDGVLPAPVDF

[5] = Luminescence Cell-Based Dose Confirmation HTS to Identify Activators of 5'UTR Stem-Loop Driven Alpha-Synuclein mRNA Translation in H4 Neuroglioblastoma Cells. [Related pubchem assays: 1829 (Project Summary), 1814 (Primary HTS)]; format: functional
[6] = Luminescence Cell-Based Dose Response HTS to Identify Activators of Luciferase Translation or Activity in H4 […] Cells. [Related pubchem assays: 1829 (Project Summary), 1814 (Primary HTS)]; format: functional
H4 = assay: Luminescence Cell-Based Dose Response HTS to Identify Activators of 5'UTR Stem-Loop Driven Prion Protein mRNA Translation in H4 Neuroglioblastoma Cells. [Related pubchem assays: 1829 (Project Summary), 1814 (Primary HTS)]; format: functional; conditions: Homo sapiens
cells = format: functional
[7] = Luminescence Cell-Based Dose Retest to Confirm Inhibitors of Cancer Stem Cells. [Related pubchem assays (depositor defined):AID2717, AID2721]; format: functional; conditions: Homo sapiens
[8] = blockers of HIV-1 ZM109 envelope-driven cell-cell fusion – HeLa effector, CEM target cells, luciferase, cherry-pick, dose response (AID 652058); format: functional, cell-based;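 also: luciferase signal from HIV-1 Env mediated cell-cell fusion of effector and target cells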
[9] = HIV-1 AD8 envelope cell-cell fusion blockers – cherry-pick, dose response (AID 652062); format: functional, cell-based;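 also: luciferase signal from cell-cell fusion driven by HIV-1 clade B AD8 Env; potency is for inhibitors of fusion seen as a drop in luminescence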

O=C(Cn1c2ccc(F)cc2c2nc3n(c(=O)c21)CCS3)N1CCCC1
EC50 [1]: > 160 µM (inactive)
EC50 [2]: 0.66 µM (active)

COC(=O)c1cc(NCc2cccs2)ccc1N1CCOCC1
IC50 [3]: 135 µM (active)

Cc1ccc(N2C(=O)C(Cl)=C(NCCO)C2=O)c(C)c1
AC50 [4]: 155 µM (active)
EC50 (Protein RecA): 10.8 µM (active)

Cc1ccc(-c2cc(C(=O)N3CCCc4ccccc43)no2)cc1
EC50 [5]: 52.4 µM (active)
EC50 [6]: > 120 µM (not active)
EC50 (H4): 11.8 µM (active)

O=C(Nc1nnc(-c2ccccn2)o1)c1ccc(Br)cc1
EC50 [1]: 18.3 µM (inconclusive)
EC50 [2]: > 38 µM (not active)

Cc1ccc(NC(=O)CCNCc2ccco2)cc1S(=O)(=O)N(C)C
IC50 [3]: 229 µM (active)

O=[N+]([O-])c1ccc(N2CCN(Cc3ccc([N+](=O)[O-])o3)CC2)cc1
EC50 [1]: > 150 µM (inactive)
EC50 [2]: > 38 µM (not active)
IC50 (cells): < 0.1 µM (active)

N=c1n(CCN2CCOCC2)c2ccccc2n1CC(=O)c1ccc(Cl)c(Cl)c1
EC50 [5]: > 120 µM (not active)
EC50 [6]: > 120 µM (not active)
EC50 (H4): 41.8 µM (inconclusive)

Cc1cc(C)c(C)c(S(=O)(=O)N2CCN(c3ccc(O)cc3)CC2)c1C
AC50 [7]: 8.83 µM (active)
IC50 [3]: 85.9 µM (active)

Cc1ccc(CNC(=O)CCN2C(=O)[C@@H]3Cc4ccccc4CN3C2=O)cc1
AC50 [4]: 373 µM (active)
EC50 (Protein RecA): > 380 µM (inactive)

CC1(S(=O)(=O)O)CC(=O)c2ccccc2C1=O (centres undefined)
AC50 [4]: 5.26 µM (active)
EC50 (Protein RecA): 3.03 µM (active)

CCCCC(=O)NC(c1cccc([N+](=O)[O-])c1)c1c(OC(C)=O)ccc2ccccc12 (centres undefined)
AC50 [4]: 41.6 µM (active)
EC50 (Protein RecA): 25.4 µM (active)

O=[N+]([O-])/C(C(Cl)=C(Cl)Cl)=C(/Sc1ccccc1)N1CCCCC1
AC50 [4]: 3.88 µM (active)
EC50 (Protein RecA): 7.05 µM (active)

Cc1cccc2cc(C#N)c(SCc3nnc(-c4ccccc4[N+](=O)[O-])o3)nc12
EC50 [5]: > 120 µM (not active)
EC50 [6]: 75.4 µM (active)
EC50 (H4): 18.4 µM (active)

O=C(CN1C(=O)S/C(=C\C=C\c2ccccc2)C1=O)Nc1cccc(O)c1
EC50 [5]: 16.4 µM (active)
EC50 [6]: 40.1 µM (active)
EC50 (H4): 49.2 µM (active)

O=C(Nc1cccc(OC(=O)c2ccc(Br)o2)c1)c1ccccc1
AC50 [4]: 0.0485 µM (inconclusive)
EC50 (Protein RecA): 9.2 µM (active)

CCCc1n[nH]c2c1C(c1ccc(O)c(OC)c1)C(C#N)=C(N)O2 (centres undefined)
AC50 [4]: 57.1 µM (active)
EC50 (Protein RecA): 8.18 µM (active)

CC1CC(C)CN(C(=O)c2ccc3c(c2)N(Cc2ccccc2)CCS3)C1 (centres undefined)
AC50 [4]: 5.01 µM (active)
EC50 (Protein RecA): 23.6 µM (active)

COC(=O)C1C(=O)C=C(Nc2ccc(F)cc2F)CC1c1ccccc1 (centres undefined)
EC50 [5]: > 120 µM (not active)
EC50 [6]: 95.6 µM (active)
EC50 (H4): 17.6 µM (active)

O=C(CCl)NCc1c(Cl)cccc1-n1cccc1
AC50 [4]: > 380 µM (inactive)
EC50 (Protein RecA): 15.3 µM (active)

O=C(c1cc(-c2cccc(Cl)c2)on1)N1CCOCC1
EC50 [5]: 4.22 µM (active)
EC50 [6]: 26.4 µM (active)
EC50 (H4): 21.1 µM (active)

O=C(c1ccccc1)N1CCC(c2nc(-c3ccc(S(=O)(=O)NCC4CCCO4)cc3)no2)CC1 (centres undefined)
AC50 [8]: 24.4 µM (active)
AC50 [9]: 11.3 µM (active)

Cc1ccc(C(C)(C)NC(=O)C2CCC(=O)N(C3CCCCCC3)C2)cc1 (centres undefined)
EC50 [5]: 83.3 µM (active)
EC50 [6]: 10.2 µM (active)
EC50 (H4): > 120 µM (not active)

Oc1ccc(NCc2ccc(OCc3ccccc3)cc2)cc1
IC50 [3]: 60.5 µM (active)

COc1cc(/C=C/C(=O)OCC(=O)c2ccc(OC(F)F)cc2)ccc1O
IC50 [3]: 64 µM (active)

Nc1cc(Cc2ccccc2)ccc1O
IC50 [3]: 18 µM (active)

CN(C)C(=O)C[C@H]1C[C@@H]2c3cc(NS(=O)(=O)c4ccc(F)cc4)ccc3O[C@@H]2[C@@H](CO)O1
AC50 [8]: 54.1 µM (active)

C/C(=N\N1C(=O)CSC1=S)c1ccc(Br)cc1
EC50 [1]: > 160 µM (inactive)
EC50 [2]: > 38 µM (not active)

Cc1cccc(/C=N/c2ccc3c4c(cccc24)CC3)c1O
IC50 [3]: 20 µM (active)

COc1cccc(/C=N/NC(=O)CCn2nnc3ccccc32)c1
EC50 [5]: > 120 µM (not active)
EC50 [6]: > 120 µM (not active)
EC50 (H4): > 120 µM (not active)

COC(=O)/C(=N\Nc1ccc(Cl)cc1)Sc1nnc(-c2ccc(OC)cc2)n1C
EC50 [1]: > 160 µM (inactive)
EC50 [2]: > 38 µM (not active)
